Results from patent US4562006A, “Cycloheptadiene derivatives” (Warner-Lambert Company, priority 1984, dated 1985).

Experiments:
leukotriene receptor = leukotriene receptor binding assay (RBL-1)
Text: The details of the human leukocyte lipoxygenase assay are described below. The soybean lipoxygenase radiochemical is described in Prostaglandins, Leukotrienes, and Medicine, 11, 373-80 (1983). The leukotriene receptor binding assay is described by R. F. Bruns, W. J. Thomsen, and T. A. Pugsley in Life Sciences, 33, 645 (1983).
The following tables illustrate the activity of certain representative compounds of the present invention. The RBL-1 column represent data from the leukotriene receptor binding assay and the LDA(U) column reports on the human leukoxyte lipoxygenase assay.

[1] = target: human leukocyte lipoxygenase; experiment: human leukocyte lipoxygenase assay (LDA); assay type: biochemical; conditions: LDA column
Method: An acetone-pentane powder of leukocyte and platelets was prepared from buffy coat obtained from the Michigan Red Cross and Michigan Department of Health in Lansing, Michigan, and was suspended in 5-7 volumes of cold 0.1M tris buffer, pH 7.4 containing 0.154 M NaCl. The suspension was centrifuged at 13,300 g for ten minutes at 4° C. The resultant pellet was retained, resuspended in five volumes of cold acetone, recentrifuged at 13,300 g and resuspended in five volumes of cold pentane. The pentane suspension was centrifuged for ten minutes at 13,300 g to give a pellet which was dried in the cold under vacuum with periodic pulverization. The dry powder is stable for several weeks when stored at -80° C.
This was prepared in the following manner. About 15 mg of the acetone-pentane powder is suspended in 4 ml of cold tris buffer (0.1M, pH 7.4), allowed to stand for five minutes and homogenized thoroughly. The homogenate is sonicated three times for 15 seconds each time, diluted to 7 ml with cold tris buffer (0.1M, pH 7.4) and centrifuged at 4° for 60 minutes at 13,300 g. The supernatant is retained and diluted to a total of 10 ml with cold tris buffer (0.1M, pH 7.4) to give the stock enzyme solution. […]
The enzyme reaction is followed spectrophotometrically by the appearance of a conjugated diene product at 234 nm. The reaction is monitored at 24° using a Gilford Model 2500 spectrophotometer. […]

Compound | IC50 (leukotriene receptor) | IC50 [1]
CCCCC/C=C\C=C\C1CC1/C=C\CCCCCC(=O)O (stereo not shown) [Example 11, 7-Octenoic acid, 8-[2-(1,3-nonadienyl)cyclopropyl]-, (Z,E,Z)] | 10.3 µM | –
CCCCC/C=C\C=C\C1CC1/C=C\CCCC(=O)O (stereo not shown) [Example 13, 6-[2-(1,3-nonadienyl)cyclopropyl]-5-hexenoic acid (Z,E,Z)] | 26.4 µM | –
CCCCC/C=C\C1C=CCCC=C1/C=C\CCCC(=O)O (stereo not shown) [Example 18, 5-Hexenoic acid, 6-[7-(1-heptenyl)-1,5-cycloheptadien-1-yl]-] | 17.1 µM | –
CCCCC/C=C\C1C=CCC=CC1CCCC(=O)O (stereo not shown) [Example 14, 2,5-cycloheptadiene-1-butanoic acid, 7-(1-heptenyl)-, (Z)-] | 53.4 µM | –
CCCCCCCC1C=CCC=CC1/C=C\CCCC(=O)O (stereo not shown) [Example 6, 5-Hexenoic acid, 6-(7-heptyl-2,5-cycloheptadien-1-yl)-] | 23.9 µM | –
CCCCC/C=C\C1C=CCC=CC1CCCCCC(=O)O (stereo not shown) [Example 12, 2,5-Cycloheptadiene-1-hexanoic acid, 7-(1-heptenyl)-(Z)-] | 26.4 µM | 0.74 µM
